Each structure is given as a SMILES string.

Data set [1] in a line: The drug is tested on WLS-039 corresponding to human gut metagenome with ENA study accession number: PRJEB37062 and ENA sample accession number: ERS12561746 for biotransformation under anaerobic condition. The drug concentrations were measured over 9 timepoints collected between 0 and 24 hours of incubation by liquid-chromatography-coupled mass spectrometry (LC–MS). Particulars: 2 µM.

The conditions of data set [2]: human gut metagenome, 24 h, 2 µM.
The conditions of data set [3]: human gut metagenome, 24 h, 2 µM. The source holds these as a separate data set.
The nature of data set [4]: The drug is tested on WLS-007 corresponding to human gut metagenome with ENA study accession number: PRJEB37062 and ENA sample accession number: ERS12561742 for biotransformation under anaerobic condition. The drug concentrations were measured over 9 timepoints collected between 0 and 24 hours of incubation by liquid-chromatography-coupled mass spectrometry (LC–MS). Particulars: 2 µM.

For data set [5] the following is noted: human gut metagenome, 24 h, 2 µM. The source holds these as a separate data set.
A short description of data set [6]: The drug is tested on WLS-240 corresponding to human gut metagenome with ENA study accession number: PRJEB37062 and ENA sample accession number: ERS12561773 for biotransformation under anaerobic condition. The drug concentrations were measured over 9 timepoints collected between 0 and 24 hours of incubation by liquid-chromatography-coupled mass spectrometry (LC–MS). The conditions noted are these: 2 µM.

The nature of data set [7]: The drug is tested on WLS-069 corresponding to human gut metagenome with ENA study accession number: PRJEB37062 and ENA sample accession number: ERS12561748 for biotransformation under anaerobic condition. The drug concentrations were measured over 9 timepoints collected between 0 and 24 hours of incubation by liquid-chromatography-coupled mass spectrometry (LC–MS). Particulars: 2 µM.

For data set [8] the following is noted: human gut metagenome, 24 h, 2 µM. This is another data set of the same source.
The nature of data set [9]: The drug is tested on WLS-170 corresponding to human gut metagenome with ENA study accession number: PRJEB37062 and ENA sample accession number: ERS12561762 for biotransformation under anaerobic condition. The drug concentrations were measured over 9 timepoints collected between 0 and 24 hours of incubation by liquid-chromatography-coupled mass spectrometry (LC–MS). Particulars: 2 µM.

For data set [10] the following is noted: human gut metagenome, 24 h, 2 µM. This is another data set of the same source.
For data set [11] the following is noted: human gut metagenome, 24 h, 2 µM. This is another data set of the same source.
The conditions of data set [12]: human gut metagenome, 24 h, 2 µM. This is another data set of the same source.
The nature of data set [13]: The drug is tested on Z-001 corresponding to mouse gut metagenome with ENA study accession number: PRJEB37062 and ENA sample accession number: ERS12561801 for biotransformation under anaerobic condition. The drug concentrations were measured over 9 timepoints collected between 0 and 24 hours of incubation by liquid-chromatography-coupled mass spectrometry (LC–MS). The conditions noted are these: 2 µM.
Note: call rule not given here.

For the compound `CN(C)CCc1c[nH]c2ccc(CS(=O)(=O)N3CCCC3)cc12` [ALMOTRIPTAN], the “Bacterial Biotransformation” value was “Compound NOT metabolized” in data set [1]; “Compound metabolized” in data set [2]; “Compound NOT metabolized” in data set [3]; “Compound NOT metabolized” in [4]; “Compound NOT metabolized” in data set [5]; “Compound metabolized” in data set [6]. The “Bacterial Biotransformation” value was “Compound NOT metabolized” in data set [7]; “Compound NOT metabolized” in [8]; “Compound metabolized” in [9]; “Compound NOT metabolized” in data set [10]; “Compound NOT metabolized” in [11]; “Compound NOT metabolized” in data set [12].
As to `CCCCC(=O)O[C@]1(C(=O)CO)[C@@H](C)C[C@H]2[C@@H]3CCC4=CC(=O)C=C[C@]4(C)[C@@]3(F)[C@@H](O)C[C@@]21C` [BETAMETHASONE VALERATE], the “Bacterial Biotransformation” value is given as “Compound metabolized” in data set [1]; “Compound metabolized” in data set [2]; “Compound metabolized” in data set [3]; “Compound metabolized” in data set [4]; “Compound NOT metabolized” in data set [5]; “Compound metabolized” in [6]. Besides, the “Bacterial Biotransformation” value in data set [7] is “Compound metabolized”; in data set [8] it was “Compound metabolized”; in data set [9] it was “Compound metabolized”; in data set [10], “Compound NOT metabolized”; in [11], “Compound NOT metabolized”; in data set [12] it was “Compound NOT metabolized”.
As to `Cc1nc(Nc2ncc(C(=O)Nc3c(C)cccc3Cl)s2)cc(N2CCN(CCO)CC2)n1` [DASATINIB ANHYDROUS], the “Bacterial Biotransformation” value in data set [1] is given as “Compound metabolized”; in data set [2], “Compound metabolized”; in data set [3], “Compound metabolized”; in [4] it was “Compound NOT metabolized”; in data set [5], “Compound NOT metabolized”; in [6], “Compound metabolized”. Moreover, the “Bacterial Biotransformation” value is “Compound NOT metabolized” in data set [7]; “Compound NOT metabolized” in data set [8]; “Compound metabolized” in [9]; “Compound NOT metabolized” in data set [10]; “Compound metabolized” in [11]; “Compound NOT metabolized” in data set [12].
`CNCC[C@H](Oc1cccc2ccccc12)c1cccs1` [DULOXETINE]: the “Bacterial Biotransformation” value in data set [1] is listed as “Compound NOT metabolized”; in [2], “Compound NOT metabolized”; in data set [3] it was “Compound NOT metabolized”; in data set [4] it was “Compound metabolized”; in data set [5] it was “Compound NOT metabolized”; in data set [6], “Compound NOT metabolized”. The “Bacterial Biotransformation” value in data set [7] is given as “Compound NOT metabolized”; in [8], “Compound NOT metabolized”; in data set [9], “Compound metabolized”; in [10], “Compound NOT metabolized”; in [11], “Compound NOT metabolized”; in [12] it was “Compound NOT metabolized”.
As for `COCCCC/C(=N\OCCN)c1ccc(C(F)(F)F)cc1.O=C(O)/C=C\C(=O)O` [FLUVOXAMINE MALEATE], the “Bacterial Biotransformation” value in data set [1] is “Compound NOT metabolized”; in data set [2] it was “Compound metabolized”; in [3] it was “Compound metabolized”; in data set [4], “Compound NOT metabolized”; in data set [5], “Compound NOT metabolized”; in data set [6] it was “Compound NOT metabolized”. The “Bacterial Biotransformation” value is recorded as “Compound NOT metabolized” in [7]; “Compound NOT metabolized” in data set [8]; “Compound NOT metabolized” in data set [9]; “Compound NOT metabolized” in data set [10]; “Compound metabolized” in data set [13]; “Compound metabolized” in data set [11]. Besides, in [12], the “Bacterial Biotransformation” value is recorded as “Compound NOT metabolized”.
Take `CC#CCn1c(N2CCC[C@@H](N)C2)nc2c1c(=O)n(Cc1nc(C)c3ccccc3n1)c(=O)n2C` [LINAGLIPTIN]: the “Bacterial Biotransformation” value in [1] is reported as “Compound metabolized”; in data set [2], “Compound NOT metabolized”; in data set [3] it was “Compound NOT metabolized”; in data set [4] it was “Compound NOT metabolized”; in [5], “Compound NOT metabolized”; in [6] it was “Compound NOT metabolized”. The “Bacterial Biotransformation” value in data set [7], in data set [8], in data set [9], in data set [10], in data set [11] and in [12] was “Compound NOT metabolized” in each case.
Turning to `CN1CCN(C2=Nc3ccccc3Oc3ccc(Cl)cc32)CC1.O=C(O)CCC(=O)O` [LOXAPINE SUCCINATE], the “Bacterial Biotransformation” value in [1], in data set [2], in [3], in data set [4], in data set [5] and in [6] was “Compound NOT metabolized” each time. In addition, the “Bacterial Biotransformation” value in data set [7], in data set [8], in data set [9], in data set [10], in data set [11] and in data set [12] was “Compound NOT metabolized” each time.
With `CCOC(=O)C1=C(C)NC(C)=C(C(=O)OC)C1c1cccc([N+](=O)[O-])c1` (stereo not given) [NITRENDIPINE], the “Bacterial Biotransformation” value is “Compound metabolized” in data set [1]; “Compound metabolized” in data set [2]; “Compound metabolized” in [3]; “Compound NOT metabolized” in [4]; “Compound metabolized” in [5]; “Compound metabolized” in data set [6]. The “Bacterial Biotransformation” value in [7], in data set [8], in data set [9], in data set [10] and in data set [11] was “Compound metabolized” throughout.
As to `N#Cc1ccc2c(c1)N(CCCN1CCC(O)CC1)c1ccccc1S2` [PERICIAZINE], the “Bacterial Biotransformation” value in data set [1] was “Compound NOT metabolized”; in data set [2] it was “Compound NOT metabolized”; in [3] it was “Compound NOT metabolized”; in data set [4], “Compound NOT metabolized”; in data set [5], “Compound NOT metabolized”; in data set [6], “Compound metabolized”. Moreover, the “Bacterial Biotransformation” value in data set [7] was “Compound metabolized”; in [8], “Compound metabolized”; in data set [9], “Compound metabolized”; in data set [10] it was “Compound metabolized”; in [11] it was “Compound NOT metabolized”; in data set [12] it was “Compound NOT metabolized”.
Consider `O=C([O-])C[C@H](O)C[C@H](O)/C=C/c1c(C2CC2)nc2ccccc2c1-c1ccc(F)cc1.O=C([O-])C[C@H](O)C[C@H](O)/C=C/c1c(C2CC2)nc2ccccc2c1-c1ccc(F)cc1.[Ca+2]` [PITAVASTATIN CALCIUM], for which the “Bacterial Biotransformation” value in data set [1], in data set [2], in data set [3], in data set [4], in [5] and in data set [6] was “Compound metabolized” each time. Moreover, the “Bacterial Biotransformation” value is listed as “Compound metabolized” in data set [7]; “Compound metabolized” in data set [8]; “Compound NOT metabolized” in data set [9]; “Compound NOT metabolized” in [10]; “Compound metabolized” in [11]; “Compound NOT metabolized” in data set [12].

For the origin of these results see ChEMBL document CHEMBL5724914, “Linking interpersonal differences in gut microbiota composition and drug biotransformation activity” (2024).
